Results on four compounds are retold here after paper PMC10176470, “Engaging a Non-catalytic Cysteine Residue Drives Potent and Selective Inhibition of Caspase-6” (Journal of the American Chemical Society, 2023).

Structures are written as SMILES.

One assay deals with T1, caspase-3 (C3) (Homo sapiens, UniProt P42574).
T1 sequence (P42574 29-175 limits assumed): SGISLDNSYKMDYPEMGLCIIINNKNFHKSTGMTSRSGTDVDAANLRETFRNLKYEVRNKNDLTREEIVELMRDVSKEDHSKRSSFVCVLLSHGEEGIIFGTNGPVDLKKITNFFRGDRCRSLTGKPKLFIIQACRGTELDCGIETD
Description: Caspase-3 biochemical activity assay with fluorogenic substrate. As to conditions: read-out: Casp-3 IC50. An excerpt: Error bars represent the standard deviation of thre replicate measurements. […] Activity measured by the cleavage of aminofluorocoumarin-labeled peptides (see the Supporting Information for sequences). C = caspase.

Assay [1] concerns lamin A cleavage by caspase-6 in SK-N-AS cells. Nature of the assay: Lamin cleavage assay (in-cell western after staurosporine induction). The following applies: Homo sapiens, 1 h compound then 10 μM staurosporine. Format: cell-based.
Description: This assay measured lamin A cleavage under staurosporine-induced caspase activation; while staurosporine activates all executioner caspases, lamin A cleavage monitors only the activity of C6. After 1 h of preincubation with the compound and 3 h of incubation with staurosporine, lamin A cleavage was measured by in-cell western.
Inhibition of lamin A cleavage in SK-N-AS cells after staurosporine induction of caspases. Cells were treated with the indicated compound for 1 h before the addition of 10 μM staurosporine for 4 h. Error bars indicate the standard deviation from n = 4 replicate samples.
serves as a useful target-engagement assay in cells. We used the procedure of Mintz, et al, with the following modifications: SK-N-AS cells were seeded at 10,000 cells/well in black clear bottom 384-
well plates coated with poly-D-lysine and allowed to adhere overnight. Wells were treated with
varying doses of casapase-6 inhibitor, from 5 µM – 0.1 nM in 2-fold dilutions. After one hour, cells
were treated with 10 µM staurosporine to induce apoptosis and activation of multiple caspases. 3
hours after staurosporine addition, cells were fixed and permeabilized before in-cell westerns were
performed, as described.9
The next assay concerns the target T2, C6 large subunit (Homo sapiens, UniProt P55212).
T2 construct: Residues 30-179 (LS); made in house; host or cells: E. coli Rosetta 2 pLysS DE3
Description: Disulfide tethering assay (% labeling by LC/MS), large subunit. Format: binding.

A further assay addresses T3, C6 small subunit (Homo sapiens, UniProt P55212).
T3 construct: 194-293-Leu-Glu-His6 (SS) from caspase-6 cDNA (Origene); Leu-Glu-His6 (C); made in house; host or cells: E. coli Rosetta 2 pLysS DE3
Nature of the assay: Disulfide tethering assay (% labeling by LC/MS), small subunit. Format: binding.

T2 sequence (P55212 30-179): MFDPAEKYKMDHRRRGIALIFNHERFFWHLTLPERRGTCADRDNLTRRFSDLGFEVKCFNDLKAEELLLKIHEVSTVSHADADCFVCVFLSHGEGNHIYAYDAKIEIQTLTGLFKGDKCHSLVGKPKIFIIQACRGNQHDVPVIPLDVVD
T2 sequence (P55212 194-293): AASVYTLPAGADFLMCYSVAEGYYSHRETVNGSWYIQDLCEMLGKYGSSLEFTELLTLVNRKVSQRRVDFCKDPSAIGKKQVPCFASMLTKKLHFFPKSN
T3 sequence (P55212 194-293): as above
T3 sequence (P55212 30-179): as the sequence (P55212 30-179) above

Turning to `C=CS(=O)(=O)N1C[C@H](C(=O)Nc2ccc(OC(F)(F)F)cc2)C[C@H](c2ccccc2)C1` (racemic) [(±)-3-c], at caspase-3 (C3), the half-maximal inhibitory concentration (IC50) (usually the concentration needed to halve the response being measured) was more than 500 µM.

With `C=CS(=O)(=O)N1C[C@H](C(=O)Nc2ccc(OC(F)(F)F)cc2)C[C@@H](c2ccccc2)C1` (racemic) [(±)-3-t], the IC50 at caspase-3 (C3) was more than 500 µM.

Take `C=CS(=O)(=O)N1CCC[C@@H](C(=O)Nc2ccc(OC(F)(F)F)cc2)C1` [2a]: the half-maximal inhibitory concentration (IC50) is more than 500 µM at caspase-3 (C3) and 14.2 ± 2.4 µM in assay [1].

For the compound `O=C(NCCS)[C@H]1CCCN(C(=O)Cc2ccc(OC(F)(F)F)cc2)C1` [compound 1], at C6 large subunit, the “C6 % labeling (MS) large subunit” value is listed as 2%. The “C6 % labeling (MS) small subunit” value at C6 small subunit amounted to 76%.
